Experimental data reported in patent publication US11168073B2, “3,3-difluoroallylamines or salts thereof and pharmaceutical compositions comprising the same” (YUHAN CORPORATION, priority 2018, dated 2021).
Structures can show the parent of a compound that is named as a salt.

Columns and labels:
Format in all cases: biochemical
recombinant human VAP-1 = biological target: T1, recombinant human VAP-1 (Homo sapiens, UniProt Q16853); test: Activity evaluation on recombinant human VAP-1 (Amplex Red/HRP-coupled hydrogen peroxide assay, benzylamine substrate); settings: recombinant human VAP-1, benzylamine substrate; read-out: Inhibitory Activity (IC50, nM) human VAP-1
T1 construct: purchased R&D systems
T1 sequence (Q16853 1-763): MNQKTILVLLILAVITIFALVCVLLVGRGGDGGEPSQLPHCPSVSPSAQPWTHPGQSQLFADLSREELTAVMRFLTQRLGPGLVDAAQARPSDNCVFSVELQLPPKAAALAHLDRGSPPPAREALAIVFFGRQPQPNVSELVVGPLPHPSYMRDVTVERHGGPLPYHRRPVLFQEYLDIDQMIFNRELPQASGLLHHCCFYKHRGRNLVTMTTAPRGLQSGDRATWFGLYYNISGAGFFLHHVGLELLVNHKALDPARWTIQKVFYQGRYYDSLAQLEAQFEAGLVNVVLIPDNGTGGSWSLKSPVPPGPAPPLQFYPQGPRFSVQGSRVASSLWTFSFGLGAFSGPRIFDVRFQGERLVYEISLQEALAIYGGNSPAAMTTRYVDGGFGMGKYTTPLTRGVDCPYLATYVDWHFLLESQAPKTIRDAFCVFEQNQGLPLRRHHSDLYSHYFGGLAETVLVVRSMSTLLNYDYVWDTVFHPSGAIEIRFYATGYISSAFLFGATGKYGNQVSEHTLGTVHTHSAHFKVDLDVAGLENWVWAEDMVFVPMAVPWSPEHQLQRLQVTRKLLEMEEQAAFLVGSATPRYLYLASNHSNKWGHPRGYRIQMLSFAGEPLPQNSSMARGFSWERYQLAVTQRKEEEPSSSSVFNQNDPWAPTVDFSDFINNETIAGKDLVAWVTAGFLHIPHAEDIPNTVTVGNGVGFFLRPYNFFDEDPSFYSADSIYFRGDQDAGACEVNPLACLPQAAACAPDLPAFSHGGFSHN
How it was run: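 Hydrogen peroxide from benzylamine (1 mM) oxidation by human recombinant VAP-1 detected via HRP-coupled Amplex Red (200 uM) fluorescence, kinetic over 1–2 h. Enzyme and compound preincubated 30 min at 37 °C, pH 7.4 phosphate; 8-point dose response, signal-rate decrease versus DMSO control fitted to four-parameter logistic for IC50.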

[1] = biological target: T2, recombinant human DAO (diamine oxidase) (Homo sapiens, UniProt P19801); test: Activity evaluation on recombinant human DAO (Amplex Red/HRP-coupled assay, 1 mM putrescine substrate); settings: 1 mM putrescine substrate, read-out: Inhibitory Activity (IC50, nM) DAO
T2 construct: purchased R&D systems
T2 sequence (P19801 20-751): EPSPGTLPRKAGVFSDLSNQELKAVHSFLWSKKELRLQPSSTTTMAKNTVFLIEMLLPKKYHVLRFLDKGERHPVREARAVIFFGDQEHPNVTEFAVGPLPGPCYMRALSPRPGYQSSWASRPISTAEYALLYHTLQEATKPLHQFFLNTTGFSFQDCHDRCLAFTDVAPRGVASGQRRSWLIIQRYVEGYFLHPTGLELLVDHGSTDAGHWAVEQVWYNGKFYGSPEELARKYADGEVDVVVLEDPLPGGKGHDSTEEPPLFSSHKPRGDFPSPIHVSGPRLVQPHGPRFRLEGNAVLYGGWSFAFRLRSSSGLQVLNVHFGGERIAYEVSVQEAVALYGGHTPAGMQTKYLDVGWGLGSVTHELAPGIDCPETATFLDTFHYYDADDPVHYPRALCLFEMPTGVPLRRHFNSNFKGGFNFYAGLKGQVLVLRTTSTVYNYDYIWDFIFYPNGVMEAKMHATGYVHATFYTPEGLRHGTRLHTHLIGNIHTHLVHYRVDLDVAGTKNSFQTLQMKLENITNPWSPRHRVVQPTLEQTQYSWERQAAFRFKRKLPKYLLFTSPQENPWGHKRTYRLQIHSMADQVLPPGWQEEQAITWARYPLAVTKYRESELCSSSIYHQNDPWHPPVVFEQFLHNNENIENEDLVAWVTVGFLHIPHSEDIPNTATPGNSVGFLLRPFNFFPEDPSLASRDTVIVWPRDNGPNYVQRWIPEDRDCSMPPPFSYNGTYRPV
How it was run: (§1)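 Each oxidase is tested with its own substrate: MAO-A with 0.5 mM tyramine, MAO-B with 1 mM benzylamine, DAO with 1 mM putrescine. After 30 min enzyme-compound preincubation at 37 °C, Amplex Red (200 uM) plus HRP (1 U/mL) reports H2O2 as fluorescence; IC50 is fitted from eight-point curves.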

[2] = biological target: T3, recombinant human MAO-A (monoamine oxidase-A) (Homo sapiens, UniProt P21397); test: Activity evaluation on recombinant human MAO-A (Amplex Red/HRP-coupled assay, 0.5 mM tyramine substrate); settings: 0.5 mM tyramine substrate, read-out: Inhibitory Activity (IC50, nM) MAO-A
T3 construct: purchased Sigma-Aldrich
T3 sequence (P21397 1-527): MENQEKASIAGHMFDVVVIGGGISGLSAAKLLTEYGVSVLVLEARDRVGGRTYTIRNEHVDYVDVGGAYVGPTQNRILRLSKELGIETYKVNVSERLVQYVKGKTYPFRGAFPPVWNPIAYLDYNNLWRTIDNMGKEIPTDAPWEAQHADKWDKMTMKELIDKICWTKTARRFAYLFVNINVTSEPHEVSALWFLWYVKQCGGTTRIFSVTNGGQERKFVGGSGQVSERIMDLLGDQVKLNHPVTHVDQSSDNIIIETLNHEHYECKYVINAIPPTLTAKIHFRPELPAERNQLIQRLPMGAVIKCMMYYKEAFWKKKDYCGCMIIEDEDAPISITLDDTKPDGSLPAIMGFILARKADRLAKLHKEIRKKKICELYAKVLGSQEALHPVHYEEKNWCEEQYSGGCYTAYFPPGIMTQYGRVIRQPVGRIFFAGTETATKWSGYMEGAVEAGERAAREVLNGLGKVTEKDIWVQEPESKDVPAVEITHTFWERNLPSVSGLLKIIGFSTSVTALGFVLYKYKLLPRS
How it was run: as §1

[3] = biological target: T4, recombinant human MAO-B (monoamine oxidase-B) (Homo sapiens, UniProt P27338); test: Activity evaluation on recombinant human MAO-B (Amplex Red/HRP-coupled assay, 1 mM benzylamine substrate); settings: 1 mM benzylamine substrate, read-out: Inhibitory Activity (IC50, nM) MAO-B
T4 construct: purchased Sigma-Aldrich
T4 sequence (P27338 1-520): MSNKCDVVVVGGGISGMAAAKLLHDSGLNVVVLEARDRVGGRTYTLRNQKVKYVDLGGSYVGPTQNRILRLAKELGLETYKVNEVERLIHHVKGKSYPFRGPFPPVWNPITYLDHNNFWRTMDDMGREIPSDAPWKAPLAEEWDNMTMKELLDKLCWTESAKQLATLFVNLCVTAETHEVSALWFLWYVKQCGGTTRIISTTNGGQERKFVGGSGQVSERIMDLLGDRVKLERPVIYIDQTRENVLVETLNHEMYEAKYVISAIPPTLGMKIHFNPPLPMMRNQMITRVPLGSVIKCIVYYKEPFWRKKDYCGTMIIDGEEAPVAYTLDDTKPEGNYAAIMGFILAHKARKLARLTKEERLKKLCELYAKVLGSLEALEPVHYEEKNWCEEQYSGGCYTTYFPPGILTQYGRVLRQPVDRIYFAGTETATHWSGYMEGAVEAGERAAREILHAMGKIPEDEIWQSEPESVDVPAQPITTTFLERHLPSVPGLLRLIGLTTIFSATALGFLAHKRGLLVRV
How it was run: as §1

Structure (SMILES) | IC50 (recombinant human VAP-1) | IC50 [1] | IC50 [2] | IC50 [3]
Cc1c(-c2cnn(C(F)F)c2)cccc1-n1cnn(CC(CN)=C(F)F)c1=O [Example 261, 2-[2-(aminomethyl)-3,3-difluoro-allyl]-4-[3-[1-(difluoromethyl)pyrazol-4-yl]-2-methyl-phenyl]-1,2,4-triazol-3-one Trifluoroacetate] | 6.5 nM | > 100000 nM | > 100000 nM | > 100000 nM
Cc1c(-c2cnn(C(C)C)c2)cccc1-n1cnn(CC(CN)=C(F)F)c1=O [Example 262, 2-[2-(aminomethyl)-3,3-difluoro-allyl]-4-[3-(1-isopropylpyrazol-4-yl)-2-methyl-phenyl]-1,2,4-triazol-3-one Trifluoroacetate] | 7.4 nM | > 100000 nM | > 100000 nM | > 100000 nM
Cc1c(-c2cccc(-c3nc[nH]n3)c2)cccc1-n1cnn(CC(CN)=C(F)F)c1=O [Example 263, 2-[2-(aminomethyl)-3,3-difluoro-allyl]-4-[2-methyl-3-[3-(1H-1,2,4-triazol-3-yl)phenyl]phenyl]-1,2,4-triazol-3-one Trifluoroacetate] | 29 nM | > 100000 nM | > 100000 nM | > 100000 nM
NCC(Cn1ncn(Cc2ccc(-c3ccc(N4CCNCC4)cc3)cc2)c1=O)=C(F)F [Example 266, 2-[2-(aminomethyl)-3,3-difluoro-allyl]-4-[[4-(4-piperazin-1-ylphenyl)phenyl]methyl]-1,2,4-triazol-3-one Ditrifluoroacetate] | 9.1 nM | 330 nM | > 100000 nM | > 100000 nM
Cc1cc(-c2ccc(Cn3cnn(CC(CN)=C(F)F)c3=O)cc2)cc2c1NC(=O)CC2 [Example 269, 6-[4-[[1-[2-(aminomethyl)-3,3-difluoro-allyl]-5-oxo-1,2,4-triazol-4-yl]methyl]phenyl]-8-methyl-3,4-dihydro-1H-quinolin-2-one Trifluoroacetate] | 1 nM | 71000 nM | > 100000 nM | > 100000 nM
CS(=O)(=O)c1ccc(-c2cccc(Cn3cnn(CC(CN)=C(F)F)c3=O)c2)cc1 [Example 272, 2-[2-(aminomethyl)-3,3-difluoro-allyl]-4-[[3-(4-methylsulfonylphenyl)phenyl]methyl]-1,2,4-triazol-3-one Trifluoroacetate] | 3.2 nM | 4330 nM | > 100000 nM | 23800 nM
CN(C)c1ccc(-c2cccc(Cn3cnn(CC(CN)=C(F)F)c3=O)c2)cn1 [Example 273, 2-[2-(aminomethyl)-3,3-difluoro-allyl]-4-[[3-[6-(dimethylamino)-3-pyridyl]phenyl]methyl]-1,2,4-triazol-3-one Trifluoroacetate] | 1.8 nM | 39300 nM | > 100000 nM | 2900 nM

Further lines, results first:

IC50 (recombinant human VAP-1) | IC50 [1] | IC50 [2] | IC50 [3] | Structure (SMILES)
1.3 nM | > 100000 nM | > 100000 nM | > 100000 nM | CCn1cc(-c2ccc(Cn3cnn(CC(CN)=C(F)F)c3=O)cc2)cn1 [Example 264, 2-[2-(aminomethyl)-3,3-difluoro-allyl]-4-[[4-(1-ethylpyrazol-4-yl)phenyl]methyl]-1,2,4-triazol-3-one Trifluoroacetate]
1.4 nM | > 100000 nM | > 100000 nM | > 100000 nM | CS(=O)(=O)c1ccc(-c2ccc(Cn3cnn(CC(CN)=C(F)F)c3=O)cc2)cc1 [Example 265, 2-[2-(aminomethyl)-3,3-difluoro-allyl]-4-[[4-(4-methylsulfonylphenyl)phenyl]methyl]-1,2,4-triazol-3-one Trifluoroacetate]
1.1 nM | > 100000 nM | > 100000 nM | > 100000 nM | CN(C)c1ccc(-c2ccc(Cn3cnn(CC(CN)=C(F)F)c3=O)cc2)cn1 [Example 267, 2-[2-(aminomethyl)-3,3-difluoro-allyl]-4-[[4-[6-(dimethylamino)-3-pyridyl]phenyl]methyl]-1,2,4-triazol-3-one Trifluoroacetate]
2.1 nM | > 100000 nM | > 100000 nM | 1870 nM | NCC(Cn1ncn(Cc2ccc(-c3ccc4c(c3)OCO4)cc2)c1=O)=C(F)F [Example 268, 2-[2-(aminomethyl)-3,3-difluoro-allyl]-4-[[4-(1,3-benzodioxol-5-yl)phenyl]methyl]-1,2,4-triazol-3-one Trifluoroacetate]
0.6 nM | > 100000 nM | > 100000 nM | > 100000 nM | CCn1cc(-c2ccc(Cn3cnn(CC(CN)=C(F)F)c3=O)cc2)ccc1=O [Example 270, 5-[4-[[1-[2-(aminomethyl)-3,3-difluoro-allyl]-5-oxo-1,2,4-triazol-4-yl]methyl]phenyl]-1-ethyl-pyridin-2-one Trifluoroacetate]
2.2 nM | > 100000 nM | > 100000 nM | 1590 nM | CCn1cc(-c2cccc(Cn3cnn(CC(CN)=C(F)F)c3=O)c2)cn1 [Example 271, 2-[2-(aminomethyl)-3,3-difluoro-allyl]-4-[[3-(1-ethylpyrazol-4-yl)phenyl]methyl]-1,2,4-triazol-3-one Trifluoroacetate]
